Values belong to the compound of their own block, whether it stands above or below them.
How the values were obtained:
[1] = target: T1, aggregated tau in 3T6 cells expressing htau40 (IPTG-inducible) and truncated tau (Homo sapiens, UniProt P10636); assay: Tissue culture cell assay: uptake and labelling of aggregated tau; assay type: cell-based, mouse; conditions: for binding to aggregated tau within cells, fluorescence microscopy: induced cells
T1 construct: express both full-length human tau protein (htau40); truncated tau (295-390, dGA); expressed in transfected cells; host or cells: murine 3T6 fibroblasts; htau40 in pOPRSVI (IPTG-inducible), dGA in pcDNA3.1 (constitutive)
Protocol: The aggregated tau was prepared in cell lines as described in WO02/055720. In essence, fibroblast cells (3T6) express full-length tau (“T40”) under control of an inducible promotor, and low constitutive levels of the PHF-core tau fragment (12 kD fragment). Then T40 expression is induced, it undergoes aggregation-dependent truncation within the cell, N-terminally at ˜αα295 and C-terminally at ˜αα390, thereby producing higher levels of the 12 kD PHF-core domain fragment.
The tissue culture assay uses 3T6 mouse cells engineered to express both full-length human tau protein (htau40) under the control of an inducible promoter (pOPRSVI), and to express low levels of truncated tau (295-390, dGA) under the control of a constitutive promoter (pcDNA3.1). Expression of large quantities of htau40 is induced by the addition of isopropyl β-D-1-thiogalactopyranoside (IPTG; 10-50 μM), which in turn leads to the production of additional truncated tau by a process in which aggregation and processing of the full-length tau occurs in the presence of dGA tau which acts as template. The aggregation of tau in this assay is depicted in FIG. 1.
Murine 3T6 fibroblast cells were grown to ˜80% confluency in a 10-cm dish, before splitting into 2×24 well plates, and allowed to grow for a further 24 hrs when IPTG was added. After overnight incubation, the medium was removed and the cells were washed with PBS.
A similar experiment was performed with cells seeded on to cover slips in a 24-well plate. After 24 hrs, the cells were incubated with ligand for 20 hrs in the presence or absence of IPTG (100 μM) i.e. induced or uninduced.

[2] = target: T2, aggregated tau in brain sections of line 66 mice (full-length human tau, P301S/G335D) (Homo sapiens, UniProt P10636, G652D/P618S); assay: Ligand staining of paraffin-embedded brain sections; design: species or system mouse
T2 construct: transgenic mice expressing full-length human tau; from tissue; host or cells: fixed brain sections of transgenic line 66 mice (paraffin-embedded or frozen)
T2 sequence (P10636 1-441 isoform P10636-8 P301S/G335D): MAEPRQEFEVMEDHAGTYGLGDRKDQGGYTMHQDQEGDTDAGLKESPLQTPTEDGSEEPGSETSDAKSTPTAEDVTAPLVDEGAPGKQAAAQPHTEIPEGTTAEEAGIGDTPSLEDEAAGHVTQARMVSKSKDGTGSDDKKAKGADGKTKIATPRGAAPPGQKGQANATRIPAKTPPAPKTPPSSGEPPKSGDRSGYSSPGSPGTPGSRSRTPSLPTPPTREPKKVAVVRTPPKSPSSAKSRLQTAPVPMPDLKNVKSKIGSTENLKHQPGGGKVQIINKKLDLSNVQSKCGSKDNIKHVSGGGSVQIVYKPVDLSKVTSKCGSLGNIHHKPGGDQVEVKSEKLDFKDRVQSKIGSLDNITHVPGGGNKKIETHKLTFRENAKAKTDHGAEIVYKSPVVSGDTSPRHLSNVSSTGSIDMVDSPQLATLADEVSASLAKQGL
Excerpt: The binding of ligands to aggregated tau in tissue sections or cells containing such aggregates can also be used to test whether such compounds can (i) enter cells, and (ii) bind to aggregated tau. In addition, it is a suitable means to test fluorescent ligands that cannot be tested in the fluorescent competition binding assay.
Brain tissue sections were used from transgenic mice expressing full-length human tau, that contained a double mutation P301S/G335D (line 66 mouse). Aggregated tau pathology accumulates in neurons in these animals. Fixed tissue was used either after embedding in paraffin or after freezing in the presence of cryoprotectant.
Sections from the brains of mice expressing full-length tau, that contain a double mutation P301S/G335D, associated with frontotemporal […] were cut 5 μm thick. Sections were dewaxed and rehydrated into water. Inherent fluorescence was quenched with sodium permanganate followed by sodium borohydride. Primulin or SK2033-30 was added in 50% ethanol. In a second experiment, SK2033-30 was added in 50% ethanol containing 10% DMSO. Sections were compared with those stained by standard immunohistochemistry using mAb 7/51, an antibody recognising truncated tau repeat domain (Novak et al. (1993); Wischik et al. (1996)).

[3] = Biodistribution assay of 18F-labelled ligand; assay type: in vivo, mouse; conditions: mice
Protocol: Biodistribution and excretion studies for ligands were performed in male NMRI mice (body weight app. 30 g; 3 animals per time point). The animals were kept under normal laboratory conditions at a temperature of 22±2° C. and a dark/light rhythm of 12 hours. Food and water were provided ad libitium. During an acclimatisation period of at least 3 days before the beginning of the study, animals were clinically examined to ascertain the absence of abnormal clinical signs. At 2, 5, 30, 60 and 120 min post intravenous injection via the tail vein of ca. 150 kBq in 100 μl of the test compound, urine and faeces were quantitatively collected. At the same time points, animals were anaesthetised with isoflurane, sacrificed by decapitation and the following organs and tissues were removed for the determination of radioactivity using a gamma-counter: spleen, liver, kidney, lung, bone, heart, brain, fat, thyroid, muscle, skin, blood, tail, stomach (without content), testicle, intestine (with content), pancreas, adrenals, skull, and the remaining body. For the analysis, the decay corrected percentage of the injected dose per tissue weight (% ID/g±standard deviation) was calculated.

- binding to aggregated tau within cells, fluorescence microscopy [1]: selective binding
Compound: Oc1ccc(/N=N/c2ccc(-c3nc4ccc(O)cc4s3)cc2)c(C(F)(F)F)c1 [LS-T213, 4-{(E)-[4-(6-Hydroxy-1,3-benzothiazol-2-yl)phenyl]diazenyl}-3-(trifluoromethyl)phenol]

- uptake and labelling of aggregated tau in induced cells ([1]; IPTG-induced cells): demonstrated
- binding to aggregated tau within cells, fluorescence microscopy [1]: selective binding
Compound: Cc1ccc2nc(-c3ccc(/C=C/c4ccc(N(C)C)cc4)cc3)sc2c1 [SK2033-30, 2-{4-[2-(4-Dimethylaminophenyl)-vinyl]-phenyl}-6-methylbenzothiazole]
- staining pattern in paraffin-embedded line 66 mouse brain section ([2]; ligand added in 50% ethanol containing 10% DMSO): showed a staining pattern similar to that observed with primulin or antibody
- uptake/staining in paraffin-embedded line 66 mouse brain section ([2]; ligand added in 50% ethanol, compared with primulin or antibody immunostaining): little evidence for its uptake into cells

- % ID/g ([3]; Adrenals, 2 min post i.v.): 10.84 % ID/g
- % ID/g ([3]; Adrenals, 5 min post i.v.): 9.59 % ID/g
- % ID/g ([3]; Adrenals, 30 min post i.v.): 5.62 % ID/g
- % ID/g ([3]; Adrenals, 60 min post i.v.): 2.83 % ID/g
- % ID/g ([3]; Adrenals, 120 min post i.v.): 1.04 % ID/g
- % ID/g ([3]; Blood, 2 min post i.v.): 1.69 % ID/g
- % ID/g ([3]; Blood, 5 min post i.v.): 1.12 % ID/g
- % ID/g ([3]; Blood, 30 min post i.v.): 0.74 % ID/g
- % ID/g ([3]; Blood, 60 min post i.v.): 0.39 % ID/g
- % ID/g ([3]; Blood, 120 min post i.v.): 0.16 % ID/g
- % ID/g ([3]; Bone, 2 min post i.v.): 1.54 % ID/g
- % ID/g ([3]; Bone, 5 min post i.v.): 1.50 % ID/g
- % ID/g ([3]; Bone, 30 min post i.v.): 1.20 % ID/g
- % ID/g ([3]; Bone, 60 min post i.v.): 1.96 % ID/g
- % ID/g ([3]; Bone, 120 min post i.v.): 1.65 % ID/g
- % ID/g ([3]; Brain, 2 min post i.v.): 3.99 % ID/g
- % ID/g ([3]; Brain, 5 min post i.v.): 3.54 % ID/g
- % ID/g ([3]; Brain, 30 min post i.v.): 3.19 % ID/g
- % ID/g ([3]; Brain, 60 min post i.v.): 1.43 % ID/g
- % ID/g ([3]; Brain, 120 min post i.v.): 0.60 % ID/g
- % ID/g ([3]; Fat, 2 min post i.v.): 1.25 % ID/g
- % ID/g ([3]; Fat, 5 min post i.v.): 1.57 % ID/g
- % ID/g ([3]; Fat, 30 min post i.v.): 7.21 % ID/g
- % ID/g ([3]; Fat, 60 min post i.v.): 4.51 % ID/g
- % ID/g ([3]; Fat, 120 min post i.v.): 1.76 % ID/g
- % ID/g ([3]; Heart, 2 min post i.v.): 6.68 % ID/g
- % ID/g ([3]; Heart, 5 min post i.v.): 3.72 % ID/g
- % ID/g ([3]; Heart, 30 min post i.v.): 1.62 % ID/g
- % ID/g ([3]; Heart, 60 min post i.v.): 0.81 % ID/g
- % ID/g ([3]; Heart, 120 min post i.v.): 0.39 % ID/g
- % ID/g ([3]; Intestine, 2 min post i.v.): 1.99 % ID/g
- % ID/g ([3]; Intestine, 5 min post i.v.): 2.45 % ID/g
- % ID/g ([3]; Intestine, 30 min post i.v.): 9.36 % ID/g
- % ID/g ([3]; Intestine, 60 min post i.v.): 17.43 % ID/g
- % ID/g ([3]; Intestine, 120 min post i.v.): 20.08 % ID/g
- % ID/g ([3]; Kidney, 2 min post i.v.): 9.60 % ID/g
- % ID/g ([3]; Kidney, 5 min post i.v.): 7.10 % ID/g
- % ID/g ([3]; Kidney, 30 min post i.v.): 6.38 % ID/g
- % ID/g ([3]; Kidney, 60 min post i.v.): 3.78 % ID/g
- % ID/g ([3]; Kidney, 120 min post i.v.): 1.49 % ID/g
- % ID/g ([3]; Liver, 2 min post i.v.): 11.52 % ID/g
- % ID/g ([3]; Liver, 5 min post i.v.): 13.30 % ID/g
- % ID/g ([3]; Liver, 30 min post i.v.): 7.03 % ID/g
- % ID/g ([3]; Liver, 60 min post i.v.): 4.26 % ID/g
- % ID/g ([3]; Liver, 120 min post i.v.): 2.41 % ID/g
- % ID/g ([3]; Lung, 2 min post i.v.): 6.91 % ID/g
- % ID/g ([3]; Lung, 5 min post i.v.): 4.55 % ID/g
- % ID/g ([3]; Lung, 30 min post i.v.): 1.83 % ID/g
- % ID/g ([3]; Lung, 60 min post i.v.): 0.97 % ID/g
- % ID/g ([3]; Lung, 120 min post i.v.): 0.40 % ID/g
- % ID/g ([3]; Muscle, 2 min post i.v.): 1.98 % ID/g
- % ID/g ([3]; Muscle, 5 min post i.v.): 1.80 % ID/g
- % ID/g ([3]; Muscle, 30 min post i.v.): 1.11 % ID/g
- % ID/g ([3]; Muscle, 60 min post i.v.): 0.63 % ID/g
- % ID/g ([3]; Muscle, 120 min post i.v.): 0.20 % ID/g
- % ID/g ([3]; Pancreas, 2 min post i.v.): 4.34 % ID/g
- % ID/g ([3]; Pancreas, 5 min post i.v.): 3.17 % ID/g
- % ID/g ([3]; Pancreas, 30 min post i.v.): 1.74 % ID/g
- % ID/g ([3]; Pancreas, 60 min post i.v.): 1.11 % ID/g
- % ID/g ([3]; Pancreas, 120 min post i.v.): 0.33 % ID/g
- % ID/g ([3]; Skin, 2 min post i.v.): 1.01 % ID/g
- % ID/g ([3]; Skin, 5 min post i.v.): 1.28 % ID/g
- % ID/g ([3]; Skin, 30 min post i.v.): 1.87 % ID/g
- % ID/g ([3]; Skin, 60 min post i.v.): 1.11 % ID/g
- % ID/g ([3]; Skin, 120 min post i.v.): 0.45 % ID/g
- % ID/g ([3]; Skull, 2 min post i.v.): 1.93 % ID/g
- % ID/g ([3]; Skull, 5 min post i.v.): 1.28 % ID/g
- % ID/g ([3]; Skull, 30 min post i.v.): 0.95 % ID/g
- % ID/g ([3]; Skull, 60 min post i.v.): 1.44 % ID/g
- % ID/g ([3]; Skull, 120 min post i.v.): 1.04 % ID/g
- % ID/g ([3]; Spleen, 2 min post i.v.): 2.95 % ID/g
- % ID/g ([3]; Spleen, 5 min post i.v.): 2.44 % ID/g
- % ID/g ([3]; Spleen, 30 min post i.v.): 1.19 % ID/g
- % ID/g ([3]; Spleen, 60 min post i.v.): 0.60 % ID/g
- % ID/g ([3]; Spleen, 120 min post i.v.): 0.30 % ID/g
- % ID/g ([3]; Stomach, 2 min post i.v.): 3.67 % ID/g
- % ID/g ([3]; Stomach, 5 min post i.v.): 2.28 % ID/g
- % ID/g ([3]; Stomach, 30 min post i.v.): 2.48 % ID/g
- % ID/g ([3]; Stomach, 60 min post i.v.): 2.17 % ID/g
- % ID/g ([3]; Stomach, 120 min post i.v.): 0.98 % ID/g
- % ID/g ([3]; Tail, 2 min post i.v.): 15.89 % ID/g
- % ID/g ([3]; Tail, 5 min post i.v.): 7.40 % ID/g
- % ID/g ([3]; Tail, 30 min post i.v.): 3.74 % ID/g
- % ID/g ([3]; Tail, 60 min post i.v.): 7.70 % ID/g
- % ID/g ([3]; Tail, 120 min post i.v.): 4.93 % ID/g
- % ID/g ([3]; Testes, 2 min post i.v.): 0.97 % ID/g
- % ID/g ([3]; Testes, 5 min post i.v.): 1.10 % ID/g
- % ID/g ([3]; Testes, 30 min post i.v.): 1.68 % ID/g
- % ID/g ([3]; Testes, 60 min post i.v.): 1.18 % ID/g
- % ID/g ([3]; Testes, 120 min post i.v.): 0.61 % ID/g
- % ID/g ([3]; Thyroid, 2 min post i.v.): 3.97 % ID/g
- % ID/g ([3]; Thyroid, 5 min post i.v.): 2.59 % ID/g
- % ID/g ([3]; Thyroid, 30 min post i.v.): 1.06 % ID/g
- % ID/g ([3]; Thyroid, 60 min post i.v.): 0.59 % ID/g
- % ID/g ([3]; Thyroid, 120 min post i.v.): 0.37 % ID/g
- brain washout ([3]; i.v., 60 min vs 2 min): 64%
- brain uptake ([3]; i.v., after 2 min): 3.99 % injected dose/g tissue
- brain level ([3]; i.v., after 60 min): 1.43 % injected dose/g tissue
Compound: COc1ccc2nc(-c3ccc(NC(=O)c4ccc([18F])nc4)cc3)sc2c1 [SKT04-137, 6-[^18F]Fluoro-N-[4-(6-methoxy-benzothiazol-2-yl)-phenyl]-nicotinamide]
